Our source for the EC50, IC50 and outcome values is PubChem BioAssay AID179 (DTP/NCI, 2004).

Usually EC50 stands for the concentration needed to bring the measured effect to its halfway point. A word on the IC50: it is the concentration that gives 50% inhibition. Read a high IC50 as weaker potency in that assay.

The test system of the assay is CEM cells HIV-1 protection, formazan growth assay. The experiment in a line: NCI AIDS Antiviral Assay. Conditions: for IC50: measured here: growth of uninfected CEM cells. Put shortly: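 Protection of CEM cells against HIV-1 measured as cell growth via soluble formazan read-out, with five concentrations tested on both infected and uninfected cells; failure to protect may reflect toxicity.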

Molecules are shown by their SMILES. Values joined by “and” are separate entries in the source; they are usually repeats but may differ in a detail not shown here. Identical values can stand only once. Active and inactive are the calls of the source.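 How the source made its calls: active means compounds giving half or more protection of infected cells from virus-caused growth loss, again on retest; inactive means the rest.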 Bounds are passed on as bounds.

In the case of `COC1=CC(=O)C2C(C1=O)C(c1ccc(OC)c(OC)c1)[C@H]2C` (stereo partly specified), the EC50 was over 12 µM and the concentration for half-maximal inhibition (IC50) is over 12 µM.

As for `NC(=O)c1cc2cc(O)c(O)cc2cn1`, the EC50 was over 209 µM and the IC50 was 12.6 µM.

In the case of `c1ccc(Cn2cc(CCc3ccncc3)c3ccccc32)cc1`, the EC50 was over 200 µM and the 50% inhibitory concentration (IC50) came out at 28.2 µM.

For the compound `Cc1ccnc2c1C(=O)C(=O)C=C2N(C)C`, the outcome was inactive.

Take `C[CH2][Sn]1([CH2]C)[O]C2C(O)OC(CO)C(O)C2[O]1` (stereo unspecified): the EC50 is over 200 µM and the IC50 was found to be 3.16 µM.

Regarding `CC(=Nc1c2ccccc2nc2ccccc12)N(C)C`, the EC50 is over 200 µM and the 50% inhibitory concentration (IC50) was determined as 28.2 µM.

For `c1ccc2c(c1)SCCc1nncn1-2`, the EC50 is over 437 µM and the IC50 is over 437 µM.

`O=C1c2ccccc2C(=O)N1CC[P+](c1ccccc1)(c1ccccc1)c1ccccc1`: the EC50 is over 200 µM; the 50% inhibitory concentration (IC50) was > 200 µM and 107 µM.

For the compound `Cc1c2ccnc(C(N)=O)c2c(C)c2c1[nH]c1ccccc12`, the result was inactive.

Turning to `COC(=O)c1c(C)cccc1C1CN=NC12Cc1ccccc1C2=O` (stereo unspecified), the concentration for a half-maximal effect (EC50) is 27.5 µM and the IC50 was 102 µM.

On to `CN1C(=O)N(C)C(O)C(Cl)(Cl)C1=O` (stereo unspecified), for which the EC50 was over 200 µM and the IC50 is over 200 µM.

For the compound `CC1=NN=C(N)NC1=CC(Sc1ccc(Cl)cc1)c1c(O)ccc2ccccc12` (stereo unspecified), the EC50 was over 200 µM and the IC50 was 11.2 µM.

Take `CC1=NN(C(=O)CC(=O)Nc2ccc(C)cc2)C(=O)C1N=Nc1ccc(C(=O)O)cc1` (stereo unspecified): the EC50 was over 200 µM and the IC50 worked out at 39.8 µM.

Regarding `CC1NC(=O)C2=C1C(N)=NC(=O)C2` (stereo unspecified), the EC50 is over 1000 µM and the IC50 was over 1000 µM.

As to `CCCCCCCCCCCCCCCCCC(=O)OCCO`, the result was inactive.

With `C/C=N/NC1=Nc2ccc(Cl)cc2C(c2ccccc2)=NN1C`, the EC50 is over 200 µM and the 50% inhibitory concentration (IC50) is 33.9 µM.

On to `COC(=O)c1c2c(n(CCO)c1OC)C(=O)c1ccccc1C2=O`, for which the EC50 is over 200 µM and the concentration for half-maximal inhibition (IC50) is 81.3 µM.

Consider `Cc1cc(-c2ccco2)c(C#N)c(=S)n1C1OC(CO)C(O)C(O)C1O` (stereo unspecified), for which the EC50 was over 200 µM and the IC50 is over 200 µM.

With `NCCN.NCCN.NCCN.O=C([O-])[C@@H](O)[C@@H](O)C(=O)[O-].[Cl-].[Co+3]`, the EC50 is over 100 µM and the concentration for half-maximal inhibition (IC50) was over 100 µM.

Regarding `Cc1ccc(S(=O)(=O)CC2(Br)Cc3ccccc3C2=O)cc1` (stereo unspecified), the EC50 is over 200 µM and the IC50 turned out to be 5.75 µM.

For `C=C1C(OC(=O)C(OC(C)=O)C(c2ccccc2)N(C)C)C[C@H](OC(C)=O)[C@]2(C)C1C(OC(C)=O)[C@@H]1CC(OC(C)=O)C(C)=C([C@@H](OC(C)=O)C2OC(C)=O)C1(C)C` (stereo partly specified), the outcome was inactive.

Consider `COc1cccc(Nc2nc(N)nc(N)c2N=O)c1`, for which the EC50 was over 200 µM and the IC50 was found to be 11.2 µM.

As for `CCOC(=O)NCC(OS(C)(=O)=O)C(CNC(=O)OCC)OS(C)(=O)=O` (stereo unspecified), the EC50 is over 120 µM and the concentration for half-maximal inhibition (IC50) is over 120 µM.

Take `Cc1ccc(-c2n[nH]c(=O)n2/N=C\c2ccccc2O)cc1`: the EC50 was over 200 µM and the IC50 was over 200 µM.

As to `ON=C(C1CC1)C1CC1`, the EC50 is over 200 µM and the 50% inhibitory concentration (IC50) is over 200 µM.

Turning to `O=C(n1c(=O)n(-c2ccc(Cl)cc2)c(=O)n1C(=O)C(Cl)(Cl)Cl)C(Cl)(Cl)Cl`, the EC50 was over 200 µM and the IC50 was over 200 µM.

As for `Oc1ccc([C@H]2Oc3c(ccc(O)c3O)[C@@H](O)[C@H]2O)cc1O`, the EC50 was over 200 µM and the IC50 was found to be 29.5 µM.

`O=c1[nH]nc(Cc2ccc(Cl)cc2)n1O`: the EC50 was over 200 µM and the half-inhibitory concentration (IC50) is over 200 µM.

Regarding `COC1OC2=CCC3C(=O)NC(=O)C3C2[C@H](OC)C1OC` (stereo partly specified), the result was inactive.

Turning to `O=c1[nH]c2ccccc2c2c1CCO2`, the result was inactive.

As to `Nc1ncc(C=O)c(NCC2(CO)CCC2)n1`, the EC50 is over 200 µM and the IC50 stood at 20.9 µM.

`COc1ccc(/C=N/Nc2nc3ccccc3c(=O)n2-c2ccccc2)c(OCc2ccccc2)c1`: the EC50 is over 200 µM.

Take `O=C(O)c1c(O)ccc(N=Nc2ccc(N=Nc3ccc4c(S(=O)(=O)O)cccc4c3O)c3ccccc23)c1O`: the EC50 was over 100 µM and the IC50 is over 100 µM.

In the case of `O=C(O)c1cc(-c2c3ccc(=O)cc-3oc3cc(O)ccc23)c(C(=O)O)cc1-c1c2ccc(=O)cc-2oc2cc(O)ccc12`, the concentration for a half-maximal effect (EC50) was over 200 µM and the IC50 is over 200 µM.

On to `c1ccc(NNCC[P+](c2ccccc2)(c2ccccc2)c2ccccc2)cc1`, for which the EC50 was over 200 µM and the IC50 was found to be 2.88 µM.

Regarding `CCC1=NS(=O)(=O)c2c(ncn2C)N1`, the EC50 was over 1150 µM and the IC50 was over 1150 µM.

For the compound `CC(=O)C(N1CCCCC1)C(O)(C(F)(F)F)C(F)(F)F` (stereo unspecified), the EC50 was over 200 µM and the IC50 came to 91.2 µM.

`CC(=Nc1ccncc1)C(C)=Nc1ccncc1`: the EC50 is 20.9 µM and the IC50 was 36.3 µM.

`O=C1c2c([nH]ccc2=O)-c2nccc3c2c1nc1ccccc13`: the EC50 is over 2 µM and the IC50 stood at 0.603 µM.

As for `O=C(O)C1OC(Oc2ccc3oc4ccccc4c(=O)c3c2)C(O)C(O)C1O` (stereo unspecified), the EC50 was over 174 µM and the IC50 stood at 145 µM.

Turning to `CCCCCCCCCC1OC(CCCCCCCCC)OC(CCCCCCCCC)O1` (stereo unspecified), the EC50 was over 200 µM and the 50% inhibitory concentration (IC50) was over 200 µM.

As to `O=S1(=O)OC2(CCCCC2)c2ccccc21`, the EC50 is over 209 µM and the half-inhibitory concentration (IC50) was over 209 µM.

For the compound `C=CCNC(=S)/N=C/C(C(=O)Nc1ccc(Cl)cc1)=C(\C)O`, the EC50 was over 200 µM and the IC50 was 129 µM.

For the compound `CCOC(=O)CN1C(=O)c2c(c(C)n(-c3ccccc3)c2C)C1=O`, the EC50 was over 200 µM and the IC50 was over 200 µM.

As for `CC1(C)CC2(CC(C)(C)c3cc(O)c(O)cc32)c2cc(O)c(O)cc21`, the EC50 is over 275 µM and the IC50 was 14.1 µM.

Consider `Nc1ccc(CCCCc2ccc(S(=O)(=O)F)cc2Cl)c(Cl)c1`, for which the EC50 is over 200 µM and the IC50 was determined as 21.9 µM.

With `O=[N+]([O-])c1ccc(NSc2ccccc2)cc1`, the EC50 is over 200 µM and the IC50 came to 9.33 µM.

As for `O=C(/C=C(\Nc1ccccc1O)c1ccccc1)C(=O)NC12CC3CC(CC(C3)C1)C2`, the EC50 was over 200 µM and the concentration for half-maximal inhibition (IC50) is over 200 µM.

For `C[C@]12CC[C@H](O)CC1=CC[C@@H]1[C@@H]2CC[C@]2(C)C(=O)CC[C@@H]12`, the EC50 is over 126 µM and the 50% inhibitory concentration (IC50) is 83.2 µM.

Regarding `O=C(O)CN1C(=O)CSC1=S`, the EC50 is over 1290 µM and the IC50 was determined as 794 µM.

As to `COC(=O)c1c(C(=O)OC)c2c(C)nn3ccc1n23`, the EC50 was over 955 µM and the half-maximal inhibitory concentration (IC50) was over 955 µM.

`COC1(C(C)(C)C)C=C(C(C)(C)C)P(=O)(O)O1` (stereo unspecified): the EC50 was over 200 µM and the concentration for half-maximal inhibition (IC50) is over 200 µM.

Turning to `CCN(CC)C(=O)N[C@@H](Cc1ccccc1)C(=O)NC`, the EC50 is over 200 µM and the IC50 was over 200 µM.

As to `CSc1csc(-c2ccc(-c3ccc(-c4cc(SC)cs4)s3)s2)c1`, the EC50 is over 100 µM and the concentration for half-maximal inhibition (IC50) was over 100 µM.

For the compound `Cc1noc(NC(=O)Nc2ccccc2C(F)(F)F)c1C`, the EC50 is over 200 µM and the concentration for half-maximal inhibition (IC50) was over 200 µM.

Regarding `COc1cc(Br)c(CC2=NCCc3cc(OC)c(OC)cc32)cc1OC`, the result was inactive.

Turning to `COc1ccc(/C=C2\CN(C)CC3=C2OC(N)=C(C#N)C3c2ccc(OC)cc2)cc1` (stereo unspecified), the EC50 was over 200 µM and the IC50 came to 19.1 µM.

On to `CN(CCCNC(=O)c1cn(C)c2c1ccc1ccccc12)CCCNC(=O)c1cn(C)c2c1ccc1ccccc12`, for which the EC50 is over 200 µM and the half-inhibitory concentration (IC50) was 2.88 µM.

Turning to `CN(C)c1nncc2n[nH]nc12`, the EC50 was over 200 µM and the 50% inhibitory concentration (IC50) was over 200 µM.

For `O=C1c2ccccc2C(=O)c2c1ccc(O)c2O`, the EC50 is over 72.4 µM and the concentration for half-maximal inhibition (IC50) was 42.7 µM.

Turning to `Cn1c(=O)n2n(c1=O)C1C=CC2C2C=C(c3ccccc3)C21` (stereo unspecified), the outcome was inactive.

Take `CN1C(=O)[C@H](c2c[nH]c3ccccc23)[C@H](c2c[nH]c3ccccc23)C1=O`: the EC50 was over 129 µM and the IC50 was 38 µM.

As to `CC1=C(O)C(=O)C(C)=C(O)C1=O`, the EC50 was over 513 µM and the IC50 was determined as 9.33 µM.

For the compound `Cc1nc(-c2nc(C)c(C(=O)/C=C/c3ccc(N(C)C)cc3)s2)sc1C(=O)/C=C/c1ccc(N(C)C)cc1`, the EC50 is over 34.7 µM and the IC50 was over 34.7 µM.

Consider `COc1nc(=O)n(C2CC(N=[N+]=[N-])C(CO)O2)cc1C` (stereo unspecified), for which the EC50 is 17.4 µM and the concentration for half-maximal inhibition (IC50) was over 200 µM.

As to `CCCC(=O)Oc1ccc2c(C)cc(=O)oc2c1`, the EC50 is over 200 µM and the concentration for half-maximal inhibition (IC50) is over 200 µM.

`CCOC(=O)C1(c2ccccc2)C(=O)Oc2ccccc21` (stereo unspecified): the EC50 was 13.2 µM and the IC50 amounted to 64.6 µM.

In the case of `CC1C(c2ccc3c(c2)OCO3)c2cc3c(cc2OC1N1CCCCC1)OCO3` (stereo unspecified), the EC50 was over 200 µM and the IC50 worked out at 33.9 µM.

As for `CCOC(=O)C=C1CCC2(CC1)OCCO2`, the EC50 is over 251 µM and the 50% inhibitory concentration (IC50) is over 251 µM.

With `CN1CN(c2ccccc2)C2(CCN(CCC3COc4ccccc4O3)CC2)C1=O` (stereo unspecified), the EC50 was over 200 µM and the IC50 is 30.9 µM.

As for `COc1cc(/C=c2\sc3n(c2=O)C(c2ccc(Cl)cc2)C2=C(CCCC2C)N=3)cc(OC)c1OC` (stereo unspecified), the EC50 is over 200 µM and the IC50 was over 200 µM.

On to `c1ccc(COC2(OCc3ccccc3)CC3OC2C2NN=NC32)cc1` (stereo unspecified), for which the EC50 is over 141 µM and the IC50 turned out to be 9.77 µM.

As to `O=C(c1ccco1)N(C(=O)N1CCC(c2ccccc2)CC1)c1ccccc1`, the EC50 was over 200 µM and the IC50 is 29.5 µM.

For the compound `O=C(CC(C(=O)c1ccsc1)c1ccsc1)c1ccsc1` (stereo unspecified), the EC50 was over 200 µM and the 50% inhibitory concentration (IC50) is 22.4 µM.

Consider `O=c1n(-c2ccccc2)c(=O)n2c(-c3ccccc3)c(-c3ccccc3)n12`, for which the EC50 is over 200 µM and the IC50 came out at 30.9 µM.
